The test concerns TPA-induced edema in murine skin. Briefly: TPA-induced edema in murine skin (mouse ear), topical anti-inflammatory activity. To be noted: TPA 1 μg/ear, compound topically in acetone at 100 ug/ear just prior to TPA, 4 h after TPA, 6 mm punch biopsy weight. It is filed as in vivo, mouse (male CF-1). As to the method:
Anti-inflammatory activities of the investigational compounds were studied in murine skin using the following protocol. Edema was induced by tetradecanoyl phorbol acteate (TPA) (1 μg/ear) [Marks, F., Furstenberger, G., Kownatzki, E., Prostaglandin E Mediated Stimulation of Mouse Epidermis in vivo by Divalent Cation Ionophore A23187 and by Tumor Promotor TPA, Cancer Res. 1981, 41:696-702]. Male CF-1 (Charles River) […] were used. Investigational compounds (in acetone at 100 ug/ear) were applied to one ear just prior to application of the inflammagen. Four hours after TPA application, edema was determined by comparing the weights of 6 mm punch biopsies from control (solvent) and inflammagen-treated ears. Percent inhibitions were calculated using standard equations.

Broadly, the % Inhibition is the share of the control response that was lost under treatment. Read a high % Inhibition as a response far below the control.

Each structure is given as a SMILES string.

In the case of `O=CCc1ccc(Cn2cnc3ccccc32)cc1` [Example 1 (Part D), 4-(benzimidazol-1'-ylmethyl)phenylacetaldehyde], the “% Inhibition” value was determined as 63%.

For `O=CCc1ccc(Cn2ncc3ccccc32)cc1` [Example 2 (Part D), 4-(indazol-1'-ylmethyl)phenylacetaldehyde], the “% Inhibition” value worked out at 98%.

`O=CCc1ccc(Cn2nnc3ccccc32)cc1` [Example 3 (Part D), 4-(benzotriazol-1'-ylmethyl)phenylacetaldehyde]: the “% Inhibition” value came out at 46%.
